Test results: patent US20260374792A1, “PHENYL-FREE BISCATIONIC QUATERNARY PHOSPHONIUM COMPOUNDS AS ANTIMICROBIAL AGENTS” (priority 2022, published 2026)
Entries after “also recorded” stand apart in the source; their conditions may differ.

Experiments:
HA-MRSA (ATCC 33591) = assay: MIC against hospital-acquired methicillin-resistant S. aureus (HA-MRSA); format: cell-based; settings: Staphylococcus aureus, 72 h
Description: (§1) The term “minimum inhibitory concentration (MIC)” means the lowest concentration of an antimicrobial agent that will inhibit the visible growth of a microorganism after overnight incubation. MIC values against bacteria, for example, the Gram-positive Staphylococcus aureus and Enterococcus faecalis and the Gram-negative Escherichia coli and Pseudomonas aeruginosa were determined by standard methods. See also P. A. Wayne, Methods for Dilution Antimicrobial Tests for Bacteria that Grow Aerobically; Approved Standard, Ninth Edition, 2012, CLSI Document M07-A9, Vol. 32 No. 2.
(§2) Biological testing procedures were adapted from prior work by Melander and coworkers. For all biological assays, laboratory strains of methicillin-susceptible Staphylococcus aureus MSSA (SH1000), Staphylococcus aureus CA-MRSA (USA300-0114), Staphylococcus aureus HA-MRSA (ATCC 33591), Escherichia coli (MC4100), Enterococcus faecalis (OG1RF), Acinetobacter baumannii (ATCC 17978), were grown with shaking at 37 °C overnight from freezer stocks in 5 mL of the indicated media: SH1000, OG1RF, MC4100, USA300-0114, and ATCC 17978 were grown in BDTM Mueller-Hinton broth (MHB), whereas ATCC 33591 was grown in BDTM tryptic soy broth (TSB). The inoculum were then streaked onto Mueller-Hinton agar (MHA) plates and grown overnight at 37 °C. From the plates, single colonies were selected, diluted into 50 mL of fresh media and grown overnight at 37 °C with shaking for use in the MIC assays. Optical density (OD) measurements were obtained using a SpectraMax iD3 plate reader (Molecular Devices, United States).
(§3) Compounds were serially diluted two-fold from stock solutions (1.0 mM) to yield twelve 100 μL test concentrations, wherein the starting concentration of dimethyl sulfoxide (DMSO) was 2.5%. Overnight S. aureus, E. faecalis, E. coli, A. baumannii, USA300-0114 (CA-MRSA), and ATCC 33591 (HA-MRSA) cultures were diluted to ca. 10^6 CFU/mL in MHB or TSB and regrown to mid-exponential phase, as determined by optical density recorded at 600 nm (OD600). All cultures were then diluted again to ca. 10^6 CFU/mL and 100 μL were inoculated into each well of a U-bottom 96-well plate (Corning, 351177) containing 100 μL of compound solution. Plates were incubated statically at 37 °C for 72 hours upon which wells were evaluated visually for bacterial growth. The MIC was determined as the lowest concentration of compound resulting in no bacterial growth visible to the naked eye, based on the highest value in three independent experiments. Aqueous DMSO controls were conducted as appropriate for each compound.
(§4) The prepared library of biscationic amphiphilic compounds was assessed for performance as antibacterial disinfectants by determining the minimum inhibitory concentration (MIC) for each against a panel of bacteria. The bacteria selected for the study were chosen to evaluate the broad spectrum antimicrobial performance of the QPCs, and therefore, included both Gram-positive and Gram-negative bacterial strains, including those with known antimicrobial resistance mechanisms. These bacteria include the Gram-positive strains of methicillin-susceptible Staphylococcus aureus [MSSA; SH1000], community-acquired methicillin-resistant Staphylococcus aureus [CA-MRSA; USA 300-0114], hospital-acquired methicillin-resistant Staphylococcus aureus [HA-MRSA; ATCC 33591] and the […], Escherichia coli [MC4100], Acinetobacter baumannii [ATCC 17498] and Pseudomonas aeruginosa [PAO1].

E. faecalis (OG1RF) = assay: MIC against E. faecalis; format: cell-based; settings: Enterococcus faecalis, 72 h
Description: as §1, §2, §3, §4

HA-MRSA = assay: MBEC, biofilm eradication, HA-MRSA; format: cell-based, Staphylococcus aureus; settings: 24 hours, 37 °C, TSB
Description: (§5) A regrowth assay was used to establish the MBEC of a compound to evaluate the antibiofilm activity.
(§6) Biofilm eradication experiments were performed using a pegged-lid microtiter plate assay to determine the MBEC values for compounds of interest, as previously described. […] Sci. Rep. 2017, 7, 2003; and Raval, Y. S., Flurin, L., Mohamed, A., Greenwood-Quaintance, K. E., Beyenal, H., & Patel, R. In Vitro Activity of Hydrogen Peroxide and Hypochlorous Acid Generated by Electrochemical Scaffolds Against Planktonic and Biofilm Bacteria. Antimicrob Agents Chemother. 2021, 65, e01966-20. Briefly, […] of mid-log phase culture diluted to ca. 10^6 CFU/mL in tryptic soy broth (TSB) was added to wells of plat-bottom 96-well plates (Thermo Scientific, 266120) and covered with 96-pegged lid (Thermo Scientific, 445497). Plates were incubated to establish bacterial biofilms after incubation at 37 °C for 24 hours. The pegged lid was then removed, washed with PBS, and transferred to another 96-well plate containing 2-fold serial dilutions of the test compounds (the “challenge plate”). The total volume in each well was […], comprising of […] of compound diluted in water/DMSO, with a starting DMSO concentration of 2.5%, and […] of TSB. Plates were incubated statically at 37 °C for 24 hours. Next, the pegged lids were transferred to a fresh 96-well plate containing […] of TSB and incubated overnight at 37 °C. MBEC values were determined as the lowest test concentration that resulted eradicated biofilm (i.e., wells displaying no turbidity in the final plate).

A. baumannii = assay: MBEC, biofilm eradication, A. baumannii; format: cell-based, Acinetobacter baumannii; settings: 24 hours, 37 °C, TSB
Description: as §5, §6

panel of bacteria = assay: MIC across the panel of bacteria (Gram-positive and Gram-negative); format: cell-based; settings: over the bacterial panel
Description: as §1, §2, §3, §4

| Structure (SMILES) | MIC (HA-MRSA (ATCC 33591)) [µM] | MIC (E. faecalis (OG1RF)) [µM] | MBEC (HA-MRSA) [µM] | MBEC (A. baumannii) [µM] | antimicrobial activity / bioactivity (in words) (panel of bacteria) |
| --- | --- | --- | --- | --- | --- |
| CCCCCCCCCCCC[N+](C)(C)CC[N+](C)(C)CCCCCCCCCCCC [12(2)12, reference compound] | 1 | 8 | 4 | 4 | almost identical bioactivity across the bacterial panel |
| CCCCCCCCCCCC[P+](C)(C)CC[P+](C)(C)CCCCCCCCCCC [^MeP2P-12,12] | 1 | 4 | 8 | 8 | single-digit micromolar activity; also recorded: almost identical bioactivity across the bacterial panel |
